Experimental data published in ChEMBL document CHEMBL4828724 (Eur J Med Chem, 2021).
One block for each molecule: values may come before it.

Experiments:
[1] = Metabolic stability in monkey liver microsomes assessed as intrinsic clearance at 1 uM in the presence of NADPH measured for 60 mins by LC-MS/MS analysis; format: ADME, Macaca mulatta, Microsome; conditions: rhesus monkey, read-out: CLH
[2] = Metabolic stability in human liver microsomes assessed as intrinsic clearance at 1 uM in the presence of NADPH measured for 60 mins by LC-MS/MS analysis; format: ADME, Microsome; conditions: read-out: CLH
[3] = Metabolic stability in monkey liver microsomes assessed as half life at 1 uM in the presence of NADPH measured for 60 mins by LC-MS/MS analysis; format: ADME, Macaca mulatta, Microsome; conditions: rhesus monkey
[4] = Metabolic stability in mouse liver microsomes assessed as half life at 1 uM in the presence of NADPH measured for 60 mins by LC-MS/MS analysis; format: ADME, Microsome; conditions: liver microsomes
[5] = Metabolic stability in monkey liver microsomes assessed as parent compound remaining at 1 uM in the presence of NADPH measured after 60 mins by LC-MS/MS analysis; format: ADME, Macaca mulatta, Microsome; conditions: rhesus monkey, liver microsomes, read-out: Stability
[6] = Metabolic stability in mouse liver microsomes assessed as parent compound remaining at 1 uM in the presence of NADPH measured after 60 mins by LC-MS/MS analysis; format: ADME, Microsome; conditions: liver microsomes, read-out: Stability
[7] = Metabolic stability in mouse liver microsomes assessed as intrinsic clearance at 1 uM in the presence of NADPH measured for 60 mins by LC-MS/MS analysis; format: ADME, Microsome; conditions: read-out: CLH
[8] = Metabolic stability in human liver microsomes assessed as half life at 1 uM in the presence of NADPH measured for 60 mins by LC-MS/MS analysis; format: ADME, Microsome
[9] = Metabolic stability in human liver microsomes assessed as parent compound remaining at 1 uM in the presence of NADPH measured after 60 mins by LC-MS/MS analysis; format: ADME, Microsome; conditions: read-out: Stability
[10] = biological target: T1, Synaptic vesicular amine transporter (Rattus norvegicus, UniProt Q01827); assay: Inhibition of [3H]DTBZ binding to VMAT2 in rat brain incubated for 30 mins by liquid scintillation spectrometry analysis; format: tissue-based
[11] = biological target: Voltage-gated inwardly rectifying potassium channel KCNH2 (Homo sapiens, UniProt Q12809); assay: Inhibition of human ERG
[12] = biological target: Synaptic vesicular amine transporter (Rattus norvegicus) (UniProt Q01827); assay: Inhibition of [3H]DA uptake at VMAT2 in rat striatal synaptosome at 1 uM incubated for 10 mins followed by [3H]DA addition and measured after 20 mins by TopCount scintillation counting method relative to control; format: subcellular; conditions: Striatum, time 30.0 min
[13] = biological target: Synaptic vesicular amine transporter (Rattus norvegicus) (UniProt Q01827); assay: Inhibition of [3H]DA uptake at VMAT2 in rat striatal synaptosome at 0.1 uM incubated for 10 mins followed by [3H]DA addition and measured after 20 mins by TopCount scintillation counting method relative to control; format: subcellular; conditions: Striatum, time 30.0 min
[14] = biological target: T1, Synaptic vesicular amine transporter; assay: Inhibition of [3H]DA uptake at VMAT2 in rat striatal synaptosome incubated for 10 mins followed by [3H]DA addition and measured after 20 mins by TopCount scintillation counting method; format: subcellular, Striatum
Rattus norvegicus [15] = assay: Reduction in spontaneous locomotor activity in Sprague-Dawley rat at 3 umol/kg, po measured for 3 hrs; format: functional
Cytochrome P450 2D6 = Cytochrome P450 2D6 (Homo sapiens, UniProt P10635); assay: Inhibition of CYP2D6 (unknown origin); format: ADME
Cytochrome P450 2C9 = Cytochrome P450 2C9 (Homo sapiens, UniProt P11712); assay: Inhibition of CYP2C9 (unknown origin); format: ADME
Rattus norvegicus [16] = assay: Reduction in spontaneous locomotor activity in Sprague-Dawley rat at 15 umol/kg, po measured for 3 hrs; format: functional
[17] = Cmax in Sprague-Dawley rat at 10 umol/kg, ig administered as single dose measured for 12 hrs by LC-MS/MS analysis; format: ADME; design: route […], time 12 hrs, dose 10 µmol/kg; conditions: in vivo, po
[18] = Tmax in Sprague-Dawley rat at 10 umol/kg, ig administered as single dose measured for 12 hrs by LC-MS/MS analysis; format: ADME; conditions: in vivo, po, dose 10 µmol/kg
Cytochrome P450 2C19 = Cytochrome P450 2C19 (Homo sapiens, UniProt P33261); assay: Inhibition of CYP2C19 (unknown origin); format: ADME
[19] = Apparent volume of distribution during terminal phase in Sprague-Dawley rat at 10 umol/kg, ig administered as single dose measured after 12 hrs by LC-MS/MS analysis; format: ADME; conditions: in vivo, po, dose 10 µmol/kg, read-out: Vz/F
Cytochrome P450 2B6 = biological target: T2, Cytochrome P450 2B6 (Homo sapiens, UniProt P20813); assay: Inhibition of CYP2B6 (unknown origin); format: ADME
T2 sequence (P20813 whole entry): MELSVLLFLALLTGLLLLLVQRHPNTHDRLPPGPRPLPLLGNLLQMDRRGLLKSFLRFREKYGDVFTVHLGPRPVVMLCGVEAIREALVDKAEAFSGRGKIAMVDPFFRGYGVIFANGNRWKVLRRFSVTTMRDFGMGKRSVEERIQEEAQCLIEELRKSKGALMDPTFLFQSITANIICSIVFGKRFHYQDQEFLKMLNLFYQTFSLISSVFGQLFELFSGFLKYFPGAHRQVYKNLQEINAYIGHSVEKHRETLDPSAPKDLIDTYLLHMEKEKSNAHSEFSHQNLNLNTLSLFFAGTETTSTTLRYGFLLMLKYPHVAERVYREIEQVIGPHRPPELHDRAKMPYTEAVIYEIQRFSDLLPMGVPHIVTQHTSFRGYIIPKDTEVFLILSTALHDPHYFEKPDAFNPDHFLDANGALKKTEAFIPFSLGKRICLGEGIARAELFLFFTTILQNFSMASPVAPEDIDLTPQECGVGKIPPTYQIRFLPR

[20] = Clearance in Sprague-Dawley rat at 10 umol/kg, ig administered as single dose measured for 12 hrs by LC-MS/MS analysis; format: ADME; conditions: in vivo, po, dose 10 µmol/kg
[21] = Drug uptake in Sprague-Dawley rat brain at 5 umol/kg, ig measured after 2 hrs by LC-MS/MS analysis; format: ADME, tissue-based; conditions: in vivo, po, dose 5 µmol/kg
[22] = AUC (0 to infinity) in Sprague-Dawley rat at 10 umol/kg, ig administered as single dose by LC-MS/MS analysis; format: ADME; design: time infinity, route […], dose 10 µmol/kg; conditions: in vivo, po
[23] = Half life in Sprague-Dawley rat at 10 umol/kg, ig administered as single dose measured for 12 hrs by LC-MS/MS analysis; format: ADME; conditions: in vivo, po, dose 10 µmol/kg
[24] = Ratio of drug level in Sprague-Dawley rat brain to blood at 5 umol/kg, ig measured after 6 hrs by LC-MS/MS analysis; format: ADME, tissue-based; conditions: po, dose 5 µmol/kg
Cytochrome P450 3A4 = Cytochrome P450 3A4 (Homo sapiens, UniProt P08684); assay: Inhibition of CYP3A4 (unknown origin); format: ADME
Cytochrome P450 3A4, sequence (P08684 whole entry): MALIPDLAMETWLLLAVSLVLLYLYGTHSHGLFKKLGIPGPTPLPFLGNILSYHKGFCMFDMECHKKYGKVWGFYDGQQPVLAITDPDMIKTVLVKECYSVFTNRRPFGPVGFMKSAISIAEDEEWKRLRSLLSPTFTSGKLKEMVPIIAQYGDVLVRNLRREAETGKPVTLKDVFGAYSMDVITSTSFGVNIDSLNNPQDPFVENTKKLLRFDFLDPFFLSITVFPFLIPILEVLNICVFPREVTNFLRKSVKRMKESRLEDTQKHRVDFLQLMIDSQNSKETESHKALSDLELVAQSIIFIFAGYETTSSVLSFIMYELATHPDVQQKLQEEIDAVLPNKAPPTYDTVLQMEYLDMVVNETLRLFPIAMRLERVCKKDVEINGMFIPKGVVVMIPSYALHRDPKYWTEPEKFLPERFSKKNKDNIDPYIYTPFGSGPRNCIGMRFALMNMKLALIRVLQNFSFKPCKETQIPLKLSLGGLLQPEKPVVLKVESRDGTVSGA

Synaptic vesicular amine transporter (Rattus norvegicus), sequence (Q01827 whole entry): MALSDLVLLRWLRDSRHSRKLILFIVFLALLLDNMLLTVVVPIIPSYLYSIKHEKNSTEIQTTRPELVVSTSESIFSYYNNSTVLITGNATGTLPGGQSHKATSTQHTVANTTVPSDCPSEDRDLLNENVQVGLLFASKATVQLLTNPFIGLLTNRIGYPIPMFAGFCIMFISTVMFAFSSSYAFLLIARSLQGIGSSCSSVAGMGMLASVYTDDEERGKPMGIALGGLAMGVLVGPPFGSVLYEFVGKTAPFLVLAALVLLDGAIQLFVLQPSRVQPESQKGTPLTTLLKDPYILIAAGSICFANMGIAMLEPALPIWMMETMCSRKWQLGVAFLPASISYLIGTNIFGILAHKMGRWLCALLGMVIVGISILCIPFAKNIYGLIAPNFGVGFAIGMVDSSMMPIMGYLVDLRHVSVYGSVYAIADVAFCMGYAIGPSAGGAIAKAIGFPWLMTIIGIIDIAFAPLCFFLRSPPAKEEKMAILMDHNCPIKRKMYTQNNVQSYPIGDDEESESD
T1 sequence (Q01827 whole entry): as above
Voltage-gated inwardly rectifying potassium channel KCNH2, sequence (Q12809 whole entry): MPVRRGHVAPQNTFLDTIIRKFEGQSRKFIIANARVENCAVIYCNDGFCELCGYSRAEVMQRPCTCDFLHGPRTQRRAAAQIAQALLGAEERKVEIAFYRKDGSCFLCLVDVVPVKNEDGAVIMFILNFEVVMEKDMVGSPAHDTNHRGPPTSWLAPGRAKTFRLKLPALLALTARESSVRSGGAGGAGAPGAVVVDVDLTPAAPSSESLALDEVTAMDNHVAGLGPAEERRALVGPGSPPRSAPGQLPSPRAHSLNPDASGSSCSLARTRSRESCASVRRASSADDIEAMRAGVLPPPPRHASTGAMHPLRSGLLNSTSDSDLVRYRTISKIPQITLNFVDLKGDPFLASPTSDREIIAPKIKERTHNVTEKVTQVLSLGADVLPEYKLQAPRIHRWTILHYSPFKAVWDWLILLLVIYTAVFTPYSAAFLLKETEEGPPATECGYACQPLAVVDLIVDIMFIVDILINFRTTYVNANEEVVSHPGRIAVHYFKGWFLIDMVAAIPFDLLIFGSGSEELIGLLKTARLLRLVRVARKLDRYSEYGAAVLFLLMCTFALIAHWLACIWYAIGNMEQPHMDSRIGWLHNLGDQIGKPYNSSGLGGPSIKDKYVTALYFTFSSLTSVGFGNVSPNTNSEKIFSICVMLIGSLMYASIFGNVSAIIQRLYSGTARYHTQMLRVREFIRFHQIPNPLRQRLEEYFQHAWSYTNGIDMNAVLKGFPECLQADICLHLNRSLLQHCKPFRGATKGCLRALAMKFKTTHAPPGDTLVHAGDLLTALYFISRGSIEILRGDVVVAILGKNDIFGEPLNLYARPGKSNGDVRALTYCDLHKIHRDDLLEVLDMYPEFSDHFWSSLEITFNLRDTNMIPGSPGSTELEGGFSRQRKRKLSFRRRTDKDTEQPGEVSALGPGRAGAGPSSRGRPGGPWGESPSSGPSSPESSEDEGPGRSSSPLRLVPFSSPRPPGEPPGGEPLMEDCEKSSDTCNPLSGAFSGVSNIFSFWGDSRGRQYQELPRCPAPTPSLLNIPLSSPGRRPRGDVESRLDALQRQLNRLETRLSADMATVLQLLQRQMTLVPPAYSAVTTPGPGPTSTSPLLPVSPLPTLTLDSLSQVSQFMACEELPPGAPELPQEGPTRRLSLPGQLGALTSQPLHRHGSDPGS
Cytochrome P450 2C9, sequence (P11712 whole entry): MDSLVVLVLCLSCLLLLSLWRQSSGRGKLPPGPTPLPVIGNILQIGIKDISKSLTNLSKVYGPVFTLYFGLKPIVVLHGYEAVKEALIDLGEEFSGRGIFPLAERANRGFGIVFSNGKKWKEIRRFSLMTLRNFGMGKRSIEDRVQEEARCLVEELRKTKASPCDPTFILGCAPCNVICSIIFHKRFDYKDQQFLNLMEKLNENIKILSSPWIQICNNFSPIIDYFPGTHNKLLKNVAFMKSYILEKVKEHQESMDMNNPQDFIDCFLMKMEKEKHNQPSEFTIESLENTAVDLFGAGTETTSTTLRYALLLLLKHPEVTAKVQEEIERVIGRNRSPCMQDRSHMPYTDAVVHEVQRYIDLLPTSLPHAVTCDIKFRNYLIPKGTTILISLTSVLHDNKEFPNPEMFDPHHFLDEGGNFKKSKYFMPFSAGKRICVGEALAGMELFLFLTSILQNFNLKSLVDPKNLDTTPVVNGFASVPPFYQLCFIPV
Cytochrome P450 2C19, sequence (P33261 whole entry): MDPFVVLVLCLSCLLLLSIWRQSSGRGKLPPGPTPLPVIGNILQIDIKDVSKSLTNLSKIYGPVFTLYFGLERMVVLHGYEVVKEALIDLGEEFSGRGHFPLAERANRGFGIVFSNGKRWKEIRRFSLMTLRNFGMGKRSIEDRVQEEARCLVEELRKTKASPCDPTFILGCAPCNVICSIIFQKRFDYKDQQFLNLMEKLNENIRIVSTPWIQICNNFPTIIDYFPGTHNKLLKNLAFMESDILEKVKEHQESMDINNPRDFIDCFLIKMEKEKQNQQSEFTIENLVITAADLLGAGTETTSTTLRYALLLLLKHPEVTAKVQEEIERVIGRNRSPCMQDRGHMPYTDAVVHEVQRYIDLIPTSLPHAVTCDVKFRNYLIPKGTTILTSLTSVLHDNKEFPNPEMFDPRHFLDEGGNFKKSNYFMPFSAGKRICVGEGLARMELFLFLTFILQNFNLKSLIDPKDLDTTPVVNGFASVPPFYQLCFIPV
Cytochrome P450 2D6, sequence (P10635 whole entry): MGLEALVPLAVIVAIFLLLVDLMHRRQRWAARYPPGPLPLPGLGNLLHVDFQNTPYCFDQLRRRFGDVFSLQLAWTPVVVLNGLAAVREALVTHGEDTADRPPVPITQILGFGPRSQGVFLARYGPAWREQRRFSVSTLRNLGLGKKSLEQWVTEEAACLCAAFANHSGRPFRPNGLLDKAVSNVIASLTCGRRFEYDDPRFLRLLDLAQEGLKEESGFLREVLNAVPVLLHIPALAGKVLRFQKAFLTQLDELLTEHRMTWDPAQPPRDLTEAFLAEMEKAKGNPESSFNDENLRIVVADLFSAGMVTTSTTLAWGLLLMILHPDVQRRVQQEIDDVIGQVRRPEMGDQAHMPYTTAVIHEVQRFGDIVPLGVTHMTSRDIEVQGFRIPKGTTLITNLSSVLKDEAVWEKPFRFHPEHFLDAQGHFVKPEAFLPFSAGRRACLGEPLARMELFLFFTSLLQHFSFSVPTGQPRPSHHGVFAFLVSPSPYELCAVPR

Compound: COc1cc2c(cc1OC)C1CC(=O)C(CC(C)C)CN1CC2 (stereo not given) [TETRABENAZINE]
CLint scaled at 1 µM [1]: 149 mL/min/kg
CLint scaled at 1 µM [2]: 76 mL/min/kg
half-life at 1 µM [3]: 12.6 min
half-life at 1 µM [4]: 21.6 min
remaining at 1 h, 1 µM [5]: 10.5%
remaining at 1 h, 1 µM [6]: 13.4%
CLint scaled at 1 µM [7]: 254 mL/min/kg
half-life at 1 µM [8]: 32.8 min
remaining at 1 h, 1 µM [9]: 30.8%

Compound: COc1cc2c(cc1OC)[C@H]1C[C@@H](OC(=O)[C@@H](N)C(C)C)[C@H](CC(C)C)CN1CC2 [VALBENAZINE]
IC50 [11]: 1.7 µM

Compound: CCC1(O)CC2c3cc(OC)c(OC)cc3CCN2CC1CC(C)C (stereo not given)
IC50 [10]: > 0.5 µM
inhibition [12]: 81.7%
inhibition [13]: 33.2%

Compound: COc1cc2c(cc1OC)C1CC(O)(C#N)C(CC(C)C)CN1CC2 (stereo not given)
IC50 [14]: 0.0279 µM
IC50 [10]: 0.087 µM
inhibition [12]: 93.7%
inhibition [13]: 85%

Compound: CCCOc1cc2c(cc1OC(C)C)CCN1CC(CC(C)C)C(O)CC21 (stereo not given)
IC50 [10]: > 0.5 µM

Compound: COc1cc2c(cc1OCC(F)(F)F)CCN1CC(CC(C)C)C(O)CC21 (stereo not given)
inhibition in vivo at 3 µmol/kg (Rattus norvegicus [15]): 64.7%
CLint scaled at 1 µM [1]: 31.9 mL/min/kg
IC50 [11]: 6.51 µM
IC50 (Cytochrome P450 2D6): > 100 µM
CLint scaled at 1 µM [2]: 8.6 mL/min/kg
IC50 (Cytochrome P450 2C9): > 100 µM
inhibition in vivo at 15 µmol/kg (Rattus norvegicus [16]): 93.7%
Cmax [17]: 1400 nM
Tmax [18]: 45 min
IC50 (Cytochrome P450 2C19): > 100 µM
Vd/F [19]: 10.8 L/kg
IC50 (Cytochrome P450 2B6): > 100 µM
CL/F [20]: 53.3 mL/min/kg
inhibition [12]: 99.9%
Drug uptake [21]: 458.2 nmol/kg
AUC(0-inf) [22]: 3.47 µM·h
inhibition [13]: 99.9%
half-life [23]: 137 min
remaining at 1 h, 1 µM [5]: 48.1%
remaining at 1 h, 1 µM [6]: 14.2%
Kp at 6 h [24]: 2.21
CLint scaled at 1 µM [7]: 238 mL/min/kg
IC50 (Cytochrome P450 3A4): > 100 µM
remaining at 1 h, 1 µM [9]: 77.4%

Compound: CC(C)CC1CN2CCc3cc(OCC4CC4)c(OCC4CC4)cc3C2CC1O (stereo not given)
IC50 [10]: 0.21 µM

Now from value to molecule:

IC50 [10]: 0.0732 µM
Compound: CCOc1cc2c(cc1OCCCOC)C1CC(O)C(CC(C)C)CN1CC2 (stereo not given)

IC50 [14]: 0.0649 µM
inhibition [12]: 92.1%
inhibition [13]: 84.9%
Compound: COCCCOc1cc2c(cc1OC)C1CC(O)C(CC(C)C)CN1CC2 (stereo not given)

IC50 [10]: > 0.5 µM
Compound: CCOc1cc2c(cc1OCCCF)C1CC(O)C(CC(C)C)CN1CC2 (stereo not given)

IC50 [10]: > 0.5 µM
Compound: CCCOc1cc2c(cc1OC(C)C)C1CC(O)C(CC(C)C)CN1CC2 (stereo not given)

IC50 [10]: > 0.5 µM
Compound: CCOc1cc2c(cc1OC)CCN1CC(CC(C)C)C(O)CC21 (stereo not given)
